The text below walks through data of US20120040008A1, “PHARMACEUTICAL COMPOSITIONS OF METABOTROPIC GLUTAMATE 5 RECEPTOR (MGLU5) ANTAGONISTS” (priority 2010, published 2012).

Structures are written as SMILES. Converted amounts (≈) assume the structure as drawn. Where only a bound is given, the exact number is not on record here.

Holding throughout (type): physicochemical
Data set [1] can be described thus: aqueous solubility of the free base, pH-dependent. The conditions noted are these: aqueous medium.
The nature of the next data set: log D at pH 7.4.
The nature of a further data set: BCS classification. The conditions noted are these: because of pH dependent solubility in physiological range.

As for `Cc1nc(C#Cc2ccnc(Cl)c2)c(C)n1-c1ccc(F)cc1` [2-Chloro-4-[1-(4-fluoro-phenyl)-2,5-dimethyl-1H-imidazol-4-ylethynyl]-pyridine], the solubility is 0.3 µg/mL (≈ 0.000921 mM) in data set [1] (aqueous buffer, alkaline conditions, pH 7) and 3200 µg/mL (≈ 9.82 mM) in data set [1] (simulated gastric fluid, acidic conditions, pH 1). Moreover, in “log D at pH 7.4”, the logD is over 3. For the same molecule, the BCS classification result in “BCS classification” is reported as “BCS class 2”.

One may read the solubility as the concentration that dissolves in the medium under given conditions. Higher therefore signals a readily soluble substance. As a reminder, the logD is lipophilicity at a set pH, counting ionised and neutral species.
